Data as given in US9017700B2, “Production of a viable, storable worm egg suspension” (Dr. Falk Pharma GmbH, priority 2008, dated 2015).
Marks after values point to notes of the source that are not given here.

How the values were obtained:
[1] = system: Aspergillus niger; assay: Colony number in TSO samples at pH 4 with preservatives; type: cell-based; details: 10 000 TSO/ml in phosphate buffer pH 4, 25° C.; for T 1d: 1 day; for T 7d: 7 days
Procedure: (§1) Raising the pH from pH 2 to pH 4 and addition of preservatives Experimental conditions for examples 4a to 4e: […] The following microorganisms were added to the test samples: • Aspergillus niger in the form of an individual microorganism • Pseudomonas aruginosa, Staphylococcus aureus, Candida albicans and Escherichia coli in combination. The incubation temperature was 25° C. The test plates were evaluated after 1 to 7 days.

[2] = system: Candida albicans; assay: as above; type: cell-based; details: 10 000 TSO/ml in phosphate buffer pH 4, 25° C.; for T 1d: 1 day; for T 7d: 7 days
Procedure: as §1

[3] = system: Escherichia coli; assay: as above; type: cell-based; details: 10 000 TSO/ml in phosphate buffer pH 4, 25° C.; for T 1d: 1 day; for T 7d: 7 days
Procedure: as §1

[4] = system: Psuedomonas aeruginosa; assay: as above; type: cell-based; details: 10 000 TSO/ml in phosphate buffer pH 4, 25° C.; for T 1d: 1 day; for T 7d: 7 days
Procedure: as §1

[5] = system: Staphylococcus aureus; assay: as above; type: cell-based; details: 10 000 TSO/ml in phosphate buffer pH 4, 25° C.; for T 1d: 1 day; for T 7d: 7 days
Procedure: as §1

[6] = system: Saccharomyces cer.; assay: Microbial count after H2SO4 treatment of inoculated nutrient suspension (test yeasts); type: cell-based
[7] = system: Candida albicans; assay: as above; type: cell-based
[8] = system: Penicillium brevicomp.; assay: Microbial count after H2SO4 treatment of inoculated nutrient suspension (test molds); type: cell-based
[9] = system: Aspergillus niger; assay: as above; type: cell-based
[10] = system: microorganisms in Trichuris suis egg suspension (TSO); assay: Depletion of microorganisms in a T. suis egg suspension (microbial count per DAB 2.6.12); type: cell-based; details: TSO 2400 eggs/ml rebuffered to pH 2; after storage for 3 h at 30° C.
Procedure: The microbial count in a Trichuris suis egg suspension (TSO) in phosphate buffer (pH 7) at a concentration of 2400 eggs/ml was determined as specified in the DAB (German Pharmacopoeia, section 2.6.12, last updated with the 24th Supplement in 2006). […] This suspension was then rebuffered to pH 2 in dilute H2SO4 solution.

[11] = system: Clostridium sporog.; assay: Microbial count after H2SO4 treatment of inoculated nutrient suspension (test bacteria); type: cell-based; details: pH 2, 6 h at 30° C.
[12] = system: murine leukemia virus (MuLV); type: cell-based; details: pH 2, 30° C., with TSO; after 10 min
[13] = system: pseudorabies virus (PRV); type: cell-based; details: pH 2, 30° C., with TSO; after 10 min
[14] = system: porcine parvovirus (PPV); type: cell-based; details: pH 2, 30° C., with TSO; after 3 h
[15] = system: feline calicivirus (FCV); type: cell-based; details: pH 2, 30° C., with TSO; after 3 h
[16] = system: Bacillus subtilis; assay: Microbial count after H2SO4 treatment of inoculated nutrient suspension (test bacteria); details: pH 2, 6 h at 30° C.
[17] = system: Escherichia coli; assay: as above; details: pH 2, 6 h at 30° C.
[18] = system: Staphylococus aureus; assay: as above; details: pH 2, 6 h at 30° C.
[19] = system: Salmonella typhymurium; assay: as above; details: pH 2, 6 h at 30° C.
[20] = system: indicator cells

SMILES	T 1d [1]	T 7d [1]	T 0 [1]	T 1d [2]	T 7d [2]	T 0 [2]	T 1d [3]	T 7d [3]	T 0 [3]	T 1d [4]	T 7d [4]	T 0 [4]	T 1d [5]	T 7d [5]	T 0 [5]	also measured
CC(O)CO (stereo not shown) [Propylene glycol 15%, Propylene glycol]	30 000 cfu/ml	9000 cfu/ml	120 000 cEu/ml	8600 cfu/ml	30 cfu/ml	240 000 cfu/ml	7100 cfu/ml	<10 cfu/ml	140 000 cfu/ml	10 cfu/ml	<10 cfu/ml	180 000 cfu/ml	14 000 cfu/ml	<10 cfu/ml	130 000 cfu/ml	–
O=S(=O)(O)O [H2SO4 pH 1, H2SO4]	–	–	–	–	–	–	–	–	–	–	–	–	–	–	–	microbial count T3h H2SO4 pH 1 ([6]; pH 1, 3 h at 25° C.): 39 000 cfu; microbial count T48h H2SO4 pH 1 ([6]; pH 1, 48 h at 25° C.): 40* cfu; microbial count T3h H2SO4 pH 1 ([7]; pH 1, 3 h at 25° C.): 26 000 cfu; microbial count T48h H2SO4 pH 1 ([7]; pH 1, 48 h at 25° C.): <10 cfu; microbial count T3h H2SO4 pH 1 ([8]; pH 1, 3 h at 25° C.): 39 000 cfu; microbial count T48h H2SO4 pH 1 ([8]; pH 1, 48 h at 25° C.): 14 000 cfu; microbial count T3h H2SO4 pH 1 ([9]; pH 1, 3 h at 25° C.): 500 000 cfu; microbial count T48h H2SO4 pH 1 ([9]; pH 1, 48 h at 25° C.): 500 000 cfu
O=S(=O)(O)O [H2SO4 pH 2, H2SO4]	–	–	–	–	–	–	–	–	–	–	–	–	–	–	–	microbial count [10]: < 20 cfu/ml; microbial count, H2SO4 pH 2 after 6 h [11]: <10 colony-forming units; microbial count T3h H2SO4 pH 2 ([6]; pH 2, 3 h at 25° C.): 380 000 cfu; microbial count T48h H2SO4 pH 2 ([6]; pH 2, 48 h at 25° C.): 220 000 cfu; microbial count T3h H2SO4 pH 2 ([7]; pH 2, 3 h at 25° C.): 380 000 cfu; microbial count T48h H2SO4 pH 2 ([7]; pH 2, 48 h at 25° C.): 32 000 cfu; microbial count T3h H2SO4 pH 2 ([8]; pH 2, 3 h at 25° C.): 90 000 cfu; microbial count T48h H2SO4 pH 2 ([8]; pH 2, 48 h at 25° C.): 32 000 cfu; microbial count T3h H2SO4 pH 2 ([9]; pH 2, 3 h at 25° C.): 370 000 cfu; microbial count T48h H2SO4 pH 2 ([9]; pH 2, 48 h at 25° C.): 700 000 cfu; viral activity [12]: no longer infectious; viral activity [13]: no longer infectious; viral activity [14]: no longer infectious; viral activity [15]: no longer infectious; microbial count, H2SO4 pH 2 after 6 h [16]: 20* colony-forming units; microbial count, H2SO4 pH 2 after 6 h [17]: <10 colony-forming units; microbial count, H2SO4 pH 2 after 6 h [18]: <10 colony-forming units; microbial count, H2SO4 pH 2 after 6 h [19]: <10 colony-forming units
C/C=C/C=C/C(=O)O [Sorbic acid 0.1%, Sorbic acid]	20 000 cfu/ml	<10 cfu/ml	120 000 cEu/ml	190 cfu/ml	<10 cfu/ml	240 000 cfu/ml	490 cfu/ml	<10 cfu/ml	140 000 cfu/ml	30 cfu/ml	<10 cfu/ml	180 000 cfu/ml	240 cfu/ml	<10 cfu/ml	130 000 cfu/ml	–
[K+].[K+].[O]=[Cr](=[O])([O-])[O][Cr](=[O])(=[O])[O-] [potassium dichromate]	–	–	–	–	–	–	–	–	–	–	–	–	–	–	–	cytotoxicity [20]: cytotoxicity
O=C(O)c1ccccc1 [Benzoic acid 0.2%, Benzoic acid]	90 cfu/ml	<10 cfu/ml	120 000 cEu/ml	<10 cfu/ml	<10 cfu/ml	240 000 cfu/ml	<10 cfu/ml	<10 cfu/ml	140 000 cfu/ml	<10 cfu/ml	<10 cfu/ml	180 000 cfu/ml	<10 cfu/ml	<10 cfu/ml	130 000 cfu/ml	–
O=S(=O)(O)O [H2SO1 pH 0, H2SO4]	–	–	–	–	–	–	–	–	–	–	–	–	–	–	–	microbial count T3h H2SO1 pH 0 ([8]; pH 0, 3 h at 25° C.): 70 cfu; microbial count T48h H2SO1 pH 0 ([8]; pH 0, 48 h at 25° C.): <10 cfu; microbial count T3h H2SO1 pH 0 ([9]; pH 0, 3 h at 25° C.): 50 cfu; microbial count T48h H2SO1 pH 0 ([9]; pH 0, 48 h at 25° C.): <10 cfu
